Measurements taken from article PMC7349657, “Efficient Targeted Degradation via Reversible and Irreversible Covalent PROTACs” (Journal of the American Chemical Society, 2020).

Key:
BTK C481S = biological target: T1, BTK C481S (Homo sapiens, UniProt Q06187, C481S); assay: Degradation of overexpressed BTK C481S in transfected U2OS cells; format: cell-based; conditions: overexpressed WT vs C481S BTK, 100 nM, 24 h
T1 construct: Human wild type BTK full length was obtained from the ORFeome; expressed in transfected cells; host or cells: U2OS (ATCC HTB-96), pCDNA3.1, CMV promoter
T1 sequence (Q06187 whole entry C481S): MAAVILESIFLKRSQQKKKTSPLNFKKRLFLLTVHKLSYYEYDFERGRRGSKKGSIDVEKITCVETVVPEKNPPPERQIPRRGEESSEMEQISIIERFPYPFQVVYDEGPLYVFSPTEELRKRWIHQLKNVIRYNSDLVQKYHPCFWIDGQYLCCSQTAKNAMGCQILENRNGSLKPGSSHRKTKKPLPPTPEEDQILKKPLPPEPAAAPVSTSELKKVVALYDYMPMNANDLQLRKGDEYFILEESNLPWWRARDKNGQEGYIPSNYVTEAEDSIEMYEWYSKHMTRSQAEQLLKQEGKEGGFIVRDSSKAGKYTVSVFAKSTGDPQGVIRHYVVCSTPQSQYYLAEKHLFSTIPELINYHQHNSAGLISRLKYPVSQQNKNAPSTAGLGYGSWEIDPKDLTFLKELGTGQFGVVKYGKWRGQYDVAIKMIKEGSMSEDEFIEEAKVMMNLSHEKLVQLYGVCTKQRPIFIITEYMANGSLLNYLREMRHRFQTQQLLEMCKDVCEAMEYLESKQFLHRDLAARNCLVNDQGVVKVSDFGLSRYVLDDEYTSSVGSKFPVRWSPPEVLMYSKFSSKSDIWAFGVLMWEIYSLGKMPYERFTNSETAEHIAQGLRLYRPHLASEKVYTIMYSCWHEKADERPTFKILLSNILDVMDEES
Procedure: Figure 5 Degradation of overexpressed BTK and BTK C481S in U2OS cells. (A) Transfected U2OS cells were treated with 100 nM PROTAC for 24 h, followed by measuring BTK levels via Western blot. (B) Quantification of normalized BTK levels in (A). TEXT PRINTED IN THE PICTURE: (A) IR-1: BTK % control: 43 (Transfection: BTK-WT; PROTAC 24h [0.1 μM]); BTK % control: 67 (Transfection: BTK-C481S; PROTAC 24h [0.1 μM]) | (A) RC-2: BTK % control: 58 (Transfection: BTK-WT; PROTAC 24h [0.1 μM]); BTK % control: 73 (Transfection: BTK-C481S; PROTAC 24h [0.1 μM]) | (A) IR-2: BTK % control: 41 (Transfection: BTK-WT; PROTAC 24h [0.1 μM]); BTK % control: 62 (Transfection: BTK-C481S; PROTAC 24h [0.1 μM]) | (A) NC-1: BTK % control: 27 (Transfection: BTK-WT; PROTAC 24h [0.1 μM]); BTK % control: 49 (Transfection: BTK-C481S; PROTAC 24h [0.1 μM]) | (A) RC-3: BTK % control: 27 (Transfection: BTK-WT; PROTAC 24h [0.1 μM]); BTK % control: 104 (Transfection: BTK-C481S; PROTAC 24h [0.1 μM]) DOUBTS OF THE COPYIST ABOUT THIS PICTURE: The % control numbers are printed under a Western blot. They are given here as printed results for each compound. The vehicle and untransfected lanes (DMSO 100 and 100, Un 1 and 0) were left out as controls. / Panel B prints no numbers for its bars, so nothing was taken from it.
(§1) Ramos (ATCC, CRL-1596), Mino (ATCC, CRL-3000), or K562 (NCI-60) cell lines were counted and diluted to 10^6 cell/mL, using 1 mL per well in a 24-well plate, and U2OS (ATCC HTB-96) cells overexpressing human BTK WT or C481S mutant were grown using 2 mL in a six-well plate (see Supporting Information). Cells were incubated with 1% DMSO or compound in indicated concentrations for 24 h unless indicated differently, or cells were left untreated. Lysates were prepared as previously described,[29] and samples were measured for total protein quantification by bicinchoninic acid (BCA) assay (#23225 ThermoFisher Scientific) supplemented with 4× loading buffer including 20 mM DTT, heated to 70 °C for 10 min, loaded into 4% SDS-PAGE gel, run for 45 min at 140 mV, then transferred into a nitrocellulose membrane (Biorad) using a Trans-Blot Turbo transfer system (Biorad). The membrane was stained with Ponceau (Sigma) to validate transfer for 10 min in gentle agitation then destained for 1 h with MQ water. The membrane was blocked with Licor blocking buffer (LIC927-70001) for 1 h, washed three times for 5 min with TBS-T, incubated with primary antibody BTK (D3H5) rabbit mAb (CST; 8547 S) overnight (16 h) at 4 °C, washed three times for 5 min with TBS-T, and incubated with primary antibody against β-actin (CST; 3700) for 1 h at 25 °C. Membrane was washed three times for 5 min with TBS-T, incubated with fluorescent secondary antibodies anti-mouse IgG Alexa Fluor 647 (CST: 4410S) and anti-rabbit-IgG IRDye 800(LICOR: 926-32211) for 1 h, then washed three times for 5 min with TBS-T, dried, and immediately imaged and analyzed using Licor Odyssey CLx. Prism (GraphPad) software was used to calculate degradation levels. We used second-order polynomial fits to estimate DC50 and Dmax values.
Cloning and Over Expression of BTK
Human wild type BTK full length was obtained from the ORFeome (ref: http://www.orfeomecollaboration.org/), from which the full human BTK gene (clone HsCD00433457) was inserted into the mammalian expression vector pCDNA3.1. In parallel, a mutant BTK C481S was constructed by assemble 2 PCR products harboring the desired mutation and cloned into pCDNA3.1. […]

BTK = BTK (Homo sapiens, UniProt Q06187); assay: Time course of BTK degradation in Ramos and Mino cells; format: cell-based; set-up: endogenous in cells; host or cells: Mino (ATCC CRL-3000), Ramos (ATCC CRL-1596), K562 (NCI-60); conditions: 100 nM PROTAC, Ramos cells (RC-3: Mino cells)
Chain of BTK (Q06187 whole entry): as the sequence (Q06187 whole entry C481S) above, with S481C counted along it
Procedure: We followed the rate of BTK degradation facilitated by this compound series via a time course experiment in Ramos and Mino cells (Supporting Figure 3). The rates of degradation correlated well with the DC50 values observed after 24 h, with NC-1, IR-1, IR-2, and RC-3 degrading BTK within 2–4 h, while RC-2 and RC-1 required 6–24 h to reach maximum degradation.
as §1
Supplementary Figure 3: BTK degradation time dependency.
Ramos (PI3I, RC-1, I R-1, R C-2, I R-2, NC-1) or Mino ( RC-3) cells were treated with 100 nM of PROTAC or DMSO for indicated times, subsequently harvested for BTK levels measurement via western blot.
(1 picture or pasted object on this page, not shown here)

Compound | sensitivity of degradation to the C481S mutation (BTK C481S) | time to degrade BTK / reach maximum degradation (BTK) [h]
Nc1ncnc2c1c(-c1ccc(Oc3ccccc3)cc1)nn2C1CCCN(C(=O)C=CCCCCOCCOCCOCCOCCOc2cccc3c2C(=O)N(C2CCC(=O)NC2=O)C3=O)C1 (stereo not shown) [IR-2] | low sensitivity to the mutation | 2 to 4
Nc1ncnc2c1c(-c1ccc(Oc3ccccc3)cc1)nn2C1CCCN(C(=O)C=CCOCCOCCOCCOCCOCCOc2cccc3c2C(=O)N(C2CCC(=O)NC2=O)C3=O)C1 (stereo not shown) [IR-1] | low sensitivity to the mutation | 2 to 4

Next, values leading:

sensitivity of degradation to the C481S mutation (BTK C481S) | time to degrade BTK / reach maximum degradation (BTK) [h] | Compound
low sensitivity to the mutation | 6 to 24 | N#CC(=CCCCCOCCOCCOCCOCCOc1cccc2c1C(=O)N(C1CCC(=O)NC1=O)C2=O)C(=O)N1CCCC(n2nc(-c3ccc(Oc4ccccc4)cc3)c3c(N)ncnc32)C1 (stereo not shown) [RC-2]
only mildly affected by the mutation | 2 to 4 | Nc1ncnc2c1c(-c1ccc(Oc3ccccc3)cc1)nn2C1CCCN(C(=O)CCCCCCOCCOCCOCCOCCOc2cccc3c2C(=O)N(C2CCC(=O)NC2=O)C3=O)C1 (stereo not shown) [NC-1]
severely impaired by the mutation | 2 to 4 | CC(C)(C=C(C#N)C(=O)N1CCCC(n2nc(-c3ccc(Oc4ccccc4)cc3)c3c(N)ncnc32)C1)CCCOCCOCCOCCOCCOc1cccc2c1C(=O)N(C1CCC(=O)NC1=O)C2=O (stereo not shown) [RC-3]
